Data: patent US5225441A, “Treatment of periodontal disease” (Block Drug Company, Inc., priority 1987, dated 1993)

Legend:
[1] = tested on: periodontally supporting bone loss; conditions: beagle dog model; clinical index of periodontal disease progression; cited from earlier work
[2] = molecular target: periodontal cyclooxygenase; assay: Inhibition of cyclooxygenase products (14C arachidonic acid incorporation) in inflamed human gingival tissue homogenate; type: biochemical; conditions: for % Control: 2 hours at 37° C.
Description: Inflamed human gingival tissue was obtained from patients with periodontitis who were undergoing routine periodontal surgery. The tissues were immediately stored in liquid nitrogen prior to use or were used fresh. The assay of cyclooxygenase products was performed as a modification of the assay of El Attar et al., J. Periodon. Res., 21, 169-176 (1986). Pooled tissue was weighed and homogenized at 0°-4° C. with a polytron (Brinkman) homogenizer in a 0.2 M TRIS buffer, pH 8.0, at a final concentration of 20 mg/ml. After centrifugation for 10 minutes at 1200×g, the supernatant was divided into 3 ml aliquots for incubation in the presence or absence of a test compound. The test compounds were tested in triplicate over a log range of 10^-3 to 10^-9 M. The reaction was started by the addition of 0.2 uCi of ^14 C arachidonic acid and carried out for 2 hours at 37° C. The reaction was stopped by the addition of two volumes of ethanol and allowed to remain at room temperature for 30 minutes prior to centrifugation for 10 minutes in order to remove the precipitate. The prostaglandin was then extracted.
Prostanoids were extracted as described by Powell, Methods in Eng., 86, 467 (1982) using a Sep-Pak-C18 cartridge from Walters Associates. The Sep-Pak was prepared by the sequential elusion of 20 milliliters of ethanol and 20 milliliters of water. The sample was then adjusted to 15% ethanol, pH 3.0, with acetic acid and applied to the column. The column was eluted with 20 ml of 15% ethanol, pH 3.0, 20 ml of petroleum ether and then the prostaglandin and Tx (thromboxane) was eluded with 10 ml of methyl formate. Thereafter, the methyl formate was evaporated to dryness with nitrogen and reconstituted in 32% […] (high-pressure liquid chromatography buffer).
These are readily separated and quantified using a 4.6×100 mm RP-18 Spheri-5u column from Brownlee Labs. A Flow-One radioactivity monitor simultaneously measured radioactivity. The elution was monitored at 192 nanometers.
The net incorporation of the ^14 C arachidonate was measured in the absence of the test substance in order to determine the maximal activity of the cyclooxygenase cascade. The percent inhibition for the inhibitors tested was then determined at several concentrations in order to calculate the IC50.

- IC50 ([2]; calculated from percent inhibition at several concentrations): 15 µM
- % Control ([2]; drug concentration 1 × 10^-4 M, 100 µM): 27.5%
- % Control ([2]; drug concentration 1 × 10^-5 M, 10 µM): 55.6%
- % Control ([2]; drug concentration 10^-6 M, 1 µM): 92.6%
SMILES: CC(C)Cc1ccc(C(C)C(=O)O)cc1 (centres unmarked) [ibuprofen]
- Inhibition of periodontally supporting bone loss [1]: effective
